{
  "source": "patent US20250032493A1",
  "about": "“Methods for Treating Diseases Using MALT1 Inhibitors” (RARIFIED BIOSCIENCES, INC., priority 2021, published 2025)",
  "key": {"Total B cells": {"test_system": "Total B cells", "experiment": "B-cell proliferation assay (BCR/CD40L)", "conditions": "readout Proliferation", "description": "Freshly isolated total CD19^+ B-cells (Stemcell) from Human PBMCs were labeled with 2 μM Cell Trace Violet (ThermoFisher) and incubated for 5 min on a Nutator. […] Proliferation was assessed by flow cytometry."}, "[1]": {"test_system": "CD4+CD45RO+ Memory T-cells", "experiment": "Memory CD4+ T-cell cytokine release assay", "conditions": "Memory T-cells (a-CD3/-CD28/-CD2)", "description": "Memory CD4^+ T-cells were isolated from human donor PBMCs using an EasySep kit (Stemcell) and were rested overnight in complete RPMI media (Thermofisher) supplemented with 10% FBS (Atlanta Biologics), 10 mM HEPES, 2 mM GlutaMAX, 1 mM Na Pyruvate, and 1×MEM non-essential amino acids (Thermofisher)."}, "Jurkat-T cells": {"test_system": "Jurkat-T cells", "experiment": "Jurkat IL-2 assay", "conditions": "Jurkat-T cells (a-CD3/-CD28/-CD2); readout IL-2", "description": "Cells were cultured in RPMI/10% FBS (Thermofisher) and maintained under a concentration of 3×10^6 cells/ml. MALT1i at different concentrations were stamped by ECHO onto 384-well plates (PerkinElmer, Waltham, MA) following which cells were plated in fresh media and incubated for 30 minutes before stimulation with soluble α-CD3/CD28/CD2 (ImmunoCult, Stemcell Technologies, Vancouver, Canada) for 24 h. Supernatants were collected as mentioned earlier and processed immediately for cytokine analysis or stored at −80° C. To assess viability of cells treated with compound, cells were lysed with CTG reagent (Promega, Madison, WI), and measured by luminometer."}, "[2]": {"test_system": "human monocyte-derived macrophages", "experiment": "Monocyte-derived macrophages stimulated with IgG immune complex", "conditions": "Macrophages (aIgG + IgG, immune-complex)", "description": "(§3) After differentiation, cells were harvested with Accutase solution (Stemcell Technologies) and incubated for 2 h at 37° C., 5% CO2 in 96-well plates."}, "[3]": {"test_system": "human monocyte-derived macrophages", "experiment": "Monocyte-derived macrophages stimulated with depleted zymosan", "description": "as §3"}, "splenic Tregs": {"test_system": "splenic Tregs", "experiment": "Rat CIA model: splenic Treg levels", "type": "in vivo", "conditions": "for reduction in the Treg levels: CIA rats, in comparison to vehicle", "experimental": "(§1) For isolation of synovial fluid prior to study termination, animals were anesthetized and the skin on the hind limbs were separated to ensure exposure of knee joint. A small incision was made near the top of the knee joint and the articular cavity was rinsed with 60 μl phosphate-buffered saline (PBS) for 2 time and ˜50-60 μl synovial fluid was collected. The synovial fluid samples were spun down, and the supernatant stored at −80° C. prior to cytokine analysis. At study termination, plasma was prepared from whole blood and stored at −80° C. prior to cytokine analysis and measurement of total and anti-collagen IgG. Single cell suspensions were prepared from harvested spleens following standard methods and Treg frequencies measured by flow cytometry-based immunophenotyping of freshly isolated cells.\nHarvested spleens were homogenized in cold PBS and cellular debris removed by passing through a […] cell strainer. The cell suspension was centrifuged at 300×g for 5 min at 4° C. and the pellet was treated with 1×RBC lysis buffer per manufacturer's protocol (Thermofisher). The washed cell pellet was resuspended for a final concentration of 5-10×10^6 cells/ml and 100 μl of cell suspension was processed for immunophenotyping. […] Cells were washed with cold FACS wash buffer (BD) and fixed with 1×FoxP3/Transcription Factor Fixation Buffer (Thermofisher) for overnight at 4° C. […] Cells were washed 2-3× with the permeabilization and wash buffer as mentioned earlier, and finally resuspended in FACS wash buffer. Samples were acquired on a BD LSRFortessa flow cytometer and data analyzed using the FlowJo software (BD)."}, "CD4+ Total T-cells": {"test_system": "CD4+ Total T-cells", "experiment": "Total CD4+ T-cell cytokine release assay", "type": "cell-based, human", "conditions": "CD4+ Total T-cells (a-CD3/-CD28)", "experimental": "(§2) All cytokine measurements were performed using commercially available kits and as per manufacturer's protocol. Supernatants from human whole blood and cellular assays were quantified using the human Proinflammatory Panel 1 (human) kit on a Sector Imager 6000 reader (Meso Scale Discovery, Rockville, MD). IL-17a was quantified using the V-Plex Human IL-17a kit on a Sector Imager 6000 reader (Meso Scale Discovery, Rockville, MD). Supernatants from rat whole blood assay were analyzed for IL-2 levels using the rat IL-2 Duoset ELISA kit (R&D). Plasma and synovial samples harvested from the rat CIA study were quantified for proinflammatory cytokines using the rat V-PLEX Proinflammatory Panel 2 kit (MSD)."}, "[4]": {"test_system": "rat collagen induced arthritis (CIA) model", "experiment": "Rat collagen-induced arthritis model: clinical score", "excerpt": "Adult female Lewis Rats (180-200 g body weight) were immunized subcutaneously with Type II bovine collagen/Incomplete Freund's Adjuvant emulsion on Day 0 and Day 7. On Day 14 rats were randomized based on clinical disease scores in different treatment groups. Rats received either once daily (q.d) dose of compounds via oral gavage or Vehicle (0.5% Carboxymethylcellulose-Na+0.5% Tween 80 in water, suspension) for 2 weeks. Naïve rats used as controls."}, "MALT1": {"target": "T1, MALT1 (Homo sapiens, UniProt Q9UDY8)", "T1 sequence (Q9UDY8 1-824)": "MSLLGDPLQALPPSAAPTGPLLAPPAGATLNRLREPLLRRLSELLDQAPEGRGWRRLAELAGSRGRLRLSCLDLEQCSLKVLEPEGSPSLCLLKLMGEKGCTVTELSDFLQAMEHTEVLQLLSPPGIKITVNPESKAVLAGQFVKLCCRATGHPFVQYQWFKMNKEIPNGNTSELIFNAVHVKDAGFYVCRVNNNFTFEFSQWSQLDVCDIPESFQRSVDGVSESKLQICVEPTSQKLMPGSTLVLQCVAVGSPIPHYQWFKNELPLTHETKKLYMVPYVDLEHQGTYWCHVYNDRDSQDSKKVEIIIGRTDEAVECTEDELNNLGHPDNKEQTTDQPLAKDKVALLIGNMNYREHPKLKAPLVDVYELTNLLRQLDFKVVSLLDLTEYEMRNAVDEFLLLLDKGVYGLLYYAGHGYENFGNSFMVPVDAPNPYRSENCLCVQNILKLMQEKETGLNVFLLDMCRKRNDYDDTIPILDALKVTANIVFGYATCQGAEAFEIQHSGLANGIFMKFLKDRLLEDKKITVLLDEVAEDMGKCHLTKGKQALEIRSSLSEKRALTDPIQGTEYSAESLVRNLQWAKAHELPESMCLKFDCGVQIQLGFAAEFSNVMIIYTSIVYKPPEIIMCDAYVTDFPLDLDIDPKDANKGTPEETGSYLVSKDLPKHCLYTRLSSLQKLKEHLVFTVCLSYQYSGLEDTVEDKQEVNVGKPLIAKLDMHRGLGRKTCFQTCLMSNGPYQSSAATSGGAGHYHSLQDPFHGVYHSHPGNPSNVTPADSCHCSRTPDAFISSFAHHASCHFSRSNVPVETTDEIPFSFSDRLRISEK", "experiment": "Example IC50 and IC90 values of MALT1 inhibitors (blood concentration targets)", "type": "cell-based", "source_text": "In various embodiments, the plasma PK profile of the MALT1 inhibitor refers to a time over an IC50 blood concentration target following administration to the subject. As used herein, a “time over an IC50 blood concentration target” refers to a period of time following administration in which a concentration of the MALT1 inhibitor in the subject's blood is above the IC50 value.\nIn various embodiments, the plasma PK profile of the MALT1 inhibitor refers to a time over an IC90 blood concentration target following administration to the subject. As used herein, a “time over an IC90 blood concentration target” refers to a period of time following administration in which a concentration of the MALT1 inhibitor in the subject's blood is above the IC90 value."}, "Tregs": {"test_system": "Tregs", "experiment": "Mouse accelerated Lupus model: Treg levels", "type": "in vivo, mice", "conditions": "3 and 30 mg/kg daily", "experimental": "In this example, REO-528 MALT1 inhibitor was administered to mice of an accelerated Lupus Nephritis model (IFN-alpha accelerated) to investigate the impact of the administration of the MALT1 inhibitor. Mice were divided into 6 groups: 1) Naïve, 2) vehicle (weeks 13-18), 3) REO538 (3 mg/kg) daily administration weeks 13-18, 4) REO-538 (30 mg/kg) daily administration weeks 13-18, 5) REO-538 (30 mg/kg) daily administration weeks 15-18, and 6) BID dexamethasone (Dex) at 1 mg/kg for weeks 15-18. Groups 2 through 6 were also administered AAV encoding mIFNα to accelerate the lupus nephritis disease."}, "[5]": {"test_system": "rat collagen induced arthritis (CIA) model", "experiment": "Rat CIA model: plasma and synovial cytokines, anti-collagen and total IgG", "type": "in vivo", "experimental": "as §1\nas §2, with “Plasma and synovial samples harvested from the rat CIA study were quantified for proinflammatory cytokines using the rat V-PLEX Proinflammatory Panel 2 kit (MSD).” left out"}},
  "note": "Read-outs that look alike come from different tables or passages of the source.",
  "data": [
    {"compound": "CO[C@@H](C)c1c(NC(=O)Nc2ccnc(C(F)(F)F)c2)cnc2cc(Cl)nn12", "note": "[REO-981]", "values": [
      {"measurement": "Effect size (% Max. inhibition)", "setting": "Total B cells", "value": "~60", "unit": "%"},
      {"measurement": "Effect size (% Max. inhibition)", "setting": "[1]; readout IFNg", "value": "~80", "unit": "%"},
      {"measurement": "Effect size (% Max. inhibition)", "setting": "[1]; readout IL-2", "value": ">90", "unit": "%"},
      {"measurement": "Effect size (% Max. inhibition)", "setting": "[1]; readout IL-17", "value": ">90", "unit": "%"},
      {"measurement": "Effect size (% Max. inhibition)", "setting": "[1]; readout TNFa", "value": "~85", "unit": "%"},
      {"measurement": "Effect size (% Max. inhibition)", "setting": "Jurkat-T cells", "value": ">95", "unit": "%"},
      {"measurement": "Effect size (% Max. inhibition)", "setting": "[2]; readout IL-6", "value": ">75", "unit": "%"},
      {"measurement": "Effect size (% Max. inhibition)", "setting": "[2]; readout TNFa", "value": "~74", "unit": "%"},
      {"measurement": "Effect size (% Max. inhibition)", "setting": "[3]; readout IL-6", "value": ">60", "unit": "%"},
      {"measurement": "Effect size (% Max. inhibition)", "setting": "[3]; readout TNFa", "value": ">75", "unit": "%"},
      {"measurement": "log10Ctrough value at ~40% reduction in Treg levels", "setting": "splenic Tregs; rat, in vivo", "value": "~3.3", "unit": "ng/mL"},
      {"measurement": "Effect size (% Max. inhibition)", "setting": "CD4+ Total T-cells; readout IFNg", "value": ">95", "unit": "%"},
      {"measurement": "Effect size (% Max. inhibition)", "setting": "CD4+ Total T-cells; readout IL-2", "value": ">95", "unit": "%"},
      {"measurement": "Effect size (% Max. inhibition)", "setting": "CD4+ Total T-cells; readout TNFa", "value": "~85", "unit": "%"},
      {"measurement": "log10Ctrough value at ~50% reduction in the clinical score", "setting": "[4]; rat, in vivo", "value": "~2.6", "unit": "ng/mL"}
    ]},
    {"compound": "CN(C(=O)C1CCS(=O)(=O)CC1)[C@@H](c1ccc(Nc2cnc3cccnc3c2C2CC2)cc1)C(F)(F)F", "note": "[REO-538]", "values": [
      {"measurement": "IC90", "setting": "MALT1; example values, blood concentration target, read-out: IC90", "value": 10.4, "unit": "µM"},
      {"measurement": "IC90", "setting": "MALT1; higher dotted line of FIG. 13B, read-out: IC90 value (estimated)", "value": "~1", "unit": "µg/mL"},
      {"measurement": "IC50", "setting": "MALT1; lower dotted line of FIG. 13B, read-out: estimated IC50 value (converted)", "value": "~0.376", "unit": "µM"},
      {"measurement": "Treg levels", "setting": "Tregs", "value": "reduced Treg levels in a dose dependent manner"},
      {"measurement": "reduction in the Treg levels", "setting": "splenic Tregs; 1 mg/kg dose", "value": 1, "unit": "%"},
      {"measurement": "reduction in the Treg levels", "setting": "splenic Tregs; 10 mg/kg dose", "value": 49, "unit": "%"},
      {"measurement": "log10AUC value at ~40% reduction in Treg levels", "setting": "splenic Tregs; rat CIA model", "value": "~2.0", "unit": "μg*hr/mL"},
      {"measurement": "qualitative Treg impact (FIG. 11)", "setting": "splenic Tregs; rat CIA model", "value": "low Treg impact"},
      {"measurement": "IL-1beta and IL-6 in synovial fluid", "setting": "[5]; 10 mg/kg and 10+3 mg/kg groups in comparison to the 3 mg/kg group", "value": "lower"},
      {"measurement": "KC/GRO and TNFα in synovial fluid", "setting": "[5]; each of the 3 mg/kg, 10 mg/kg and 10+3 mg/kg groups in comparison to vehicle", "value": "lower levels"},
      {"measurement": "reduction in the clinical score", "setting": "[4]; 0.3 mg/kg dose, in comparison to the vehicle treatment", "value": 26, "unit": "%"},
      {"measurement": "reduction in the clinical score", "setting": "[4]; 1 mg/kg dose, in comparison to the vehicle treatment", "value": 59, "unit": "%"},
      {"measurement": "reduction in the clinical score", "setting": "[4]; 3 mg/kg dose, in comparison to the vehicle treatment", "value": 65, "unit": "%"},
      {"measurement": "reduction in the clinical score", "setting": "[4]; 10 mg/kg dose, in comparison to the vehicle treatment", "value": 80, "unit": "%"},
      {"measurement": "reduction in the clinical score", "setting": "[4]; Example 6: daily 3 mg/kg for 14 days, vs vehicle", "value": 25, "unit": "%"},
      {"measurement": "reduction in the clinical score", "setting": "[4]; Example 6: daily 10 mg/kg for 2 days followed by daily 3 mg/kg for 12 days, vs vehicle", "value": 43, "unit": "%"},
      {"measurement": "reduction in the clinical score", "setting": "[4]; Example 6: daily 10 mg/kg for 14 days, vs vehicle", "value": 70, "unit": "%"},
      {"measurement": "log10AUC value at ~50% reduction in the clinical score", "setting": "[4]; rat CIA model", "value": "~1.2", "unit": "μg*hr/mL"},
      {"measurement": "qualitative efficacy (FIG. 11)", "setting": "[4]; rat CIA model", "value": "high efficacy"}
    ]}
  ]
}
